Data from patent publication US20240300945A1, “CLY SERIES COMPOUND, PREPARATION METHOD THEREFOR AND USE THEREOF IN PREPARATION OF DRUGS” (NANJING WELLBEST PHARMACEUTICAL CO., LTD, priority 2021, published 2024).
Marks after values point to notes of the source that are not given here.

Assays:
skin melanocytes = assay: Chloasma model of guinea pig: pathomorphological observation of skin melanocytes; assay type: in vivo; design: Average gray level (melanocyte depth): scale not given here; conditions: 0.25% cream once a day, 30 days
Excerpt: According to the body weight, they were randomly divided into the model control group (applied cream matrix), blank control group (applied cream matrix), CLY-1 treatment group (applied 0.25% CLY-1 cream on the skin), CLY-2 treatment group (0.25% CLY-2 cream on the skin), CLY-3 treatment group (0.25% CLY-3 cream on the skin), CLY-4 treatment group (0.25% CLY-4 cream on the skin), CLY-5 treatment group (0.25% CLY-5 cream on the skin) CLY-8 treatment group (0.25% CLY-8 cream on the skin), CLY-11 treatment group (0.25% CLY-11 cream on the skin), CLY-19 treatment group (0.25% CLY-19 cream on the skin), CLY-36 treatment group (0.25% CLY-36 cream on the skin), CLY-39 treatment group (0.25% CLY-39 cream on the skin), positive treatment group (0.25% arbutin cream on the skin), 6 in each group. In addition to the blank control group, all guinea pigs in the other groups were injected with 20 mg/ml progesterone injection (7.5 mg/kg) into the muscle at the root of the hind leg, once a day, for 30 consecutive days to establish the chloasma model. […] After modeling, the guinea pigs in the model control group, blank control group, each CLY series treatment group, and positive treatment group were treated with corresponding cream on the back for intervention, once a day, for 30 consecutive days.
Took 1 piece of spare skin tissue from each of all guinea pigs, about 2 cm×1 cm, 10% paraformaldehyde fixation, pathological tissue detection, immunohistochemical staining, observation of melanocyte staining and number, and judgment of positive cells according to the literature: none, 0 point<15%, 0.5 points<30%, 1 point; >30%, 2 points. Observed 5 visual fields in each slice, found out the positive target with brown reaction in the cytoplasm of skin epidermis and accessory epithelial cells, and used BX50F4 Beihang pathological image analysis system for quantitative analysis to obtain the average area, the ratio of target area to statistical field area (areal density), the ratio of target number to statistical field area (number density), the average gray level, the average optical density and the integrated optical density of each guinea pig's 5 visual fields of melanin positive target.
SPSS16.0 software was used for statistics. The measurement data were expressed by mean±standard deviation (x±s). The comparison between multiple groups was performed by one-way ANOVA, and the comparison between groups was performed by t-test. P<0.05 was statistically significant.

rabbit ear acne model [1] = assay: Rabbit ear acne model: macroscopic observation and histological grading; assay type: in vivo, New Zealand rabbits; conditions: right ear, 10 per group; for number of rabbits with acne histological grading 2+: Grade 2; for number of rabbits with acne histological grading —: Level 0, without acne; for number of rabbits with acne histological grading 1+: Level 1; for number of rabbits with acne histological grading 3+: Level 3
Excerpt: (1) Preparation method of treatment cream: The excipient matrix components included methyl silicone oil (15%), stearic acid (6%), white vaseline (5%), liquid paraffin (5%), octadecanol (5%), glycerin (20%), alkyl aryl polyglycol ether (1%), fatty alcohol polyoxyethylene ether (1%), […] (1%), ethyl paraben (0.1%), distilled water (about 31-55%), and mixed with appropriate amount of CLY series compounds to form a mixed emulsion. The emulsion matrix used in this embodiment refers to the matrix component after the active ingredient was removed from the emulsion.
(2) Positive therapeutic drug: 0.1% adapalene gel (Trade name: Differin, produced by Laboratoires Galderma, France).
(§1) New Zealand rabbits were, according to weights, randomly divided into the model control group (applied cream matrix), positive treatment group (applied Differin on the skin), CLY-1 external treatment group (0.25% CLY-1 cream on the skin), CLY-2 external treatment group (0.25% CLY-2 cream on the skin), CLY-3 external treatment group (0.25% CLY-3 cream on the skin), CLY-4 external treatment group (0.25% CLY-4 cream on the skin) CLY-8 external treatment group (0.25% CLY-8 cream on the skin), CLY-9 external treatment group (0.25% CLY-9 cream on the skin), CLY-11 external treatment group (0.25% CLY-11 cream on the skin), CLY-19 external treatment group (0.25% CLY-19 cream on the skin), CLY-36 external treatment group (0.25% CLY-36 cream on the skin); CLY-1 intravenous injection group (1 mg/kg·d), CLY-2 intravenous injection group (1 mg/kg·d), CLY-3 intravenous injection group (1 mg/kg·d), CLY-4 intravenous injection group (1 mg/kg·d), CLY-8 intravenous injection group (1 mg/kg·d), CLY-9 intravenous injection group (1 mg/kg·d), CLY-11 intravenous injection group (1 mg/kg·d), CLY-19 intravenous injection group (1 mg/kg·d), and CLY-36 intravenous injection group (1 mg/kg·d), with 10 in each group. Took the inner side of the rabbit's right ear for depilation treatment as the observation area, and the inner side of the left ear of all rabbits as their own negative control, and applied 95% alcohol. The inner side of the right ear of the model group and the treatment group were both coated with 2% coal tar (Alfa Aesar China, which used 95% alcohol to prepare 2% coal tar solution), and evenly applied the sterile cotton swab to the opening of the ear duct on the inner side of the rabbit's ear within the range of about 2 cm×2 cm, once a day, 0.5 mL each time, and wiped the previous application site with warm water for 14 consecutive days to establish the acne micro-pigmentation model. Visually observed the changes of local skin, including ear thickness, hardness, roughness, and whether there was a black angle plug at the hair follicle mouth. 18 hours after the last application, the sample was sacrificed and skin was taken. The skin tissue was taken from the application site by using a 5 mm punch, fixed with 10% formaldehyde, embedded in paraffin, and stained with HE. The histopathological observation and analysis were carried out.
The histological grading criteria of the acne model: 3 grades according to histological grade. […] The tight keratin embolism in the hair follicles causes severe expansion of the hair follicles, obvious hyperplasia of the sebaceous duct epithelium, skin bulges and scars, and some sebaceous glands degenerate “3±”.
(§2) SPSS16 software was used for statistical analysis. The paired t-test was used for the left and right self-contrast, and the t-test was used for the comparison between the groups, P<0.05 was statistically significant.

rabbit ear acne model [2] = assay: Rabbit ear acne model: epidermal thickness, hair follicle area, sebaceous gland diameter; assay type: in vivo, New Zealand rabbits; conditions: rabbit right ear
Excerpt: as §1
The histopathological changes were observed under the microscope, and the thickness of five different epidermises on a slice was measured with the Biomias99 image analysis system, and the average value was calculated; Detected the area of the two hair follicles and the diameter of the four sebaceous glands with the same position and the most complete structure in the four sections, calculated their average values, and then subtracted the data of the left and right external auditory canal of the rabbits in each group to obtain the difference in the thickness of the left and right ear epidermis, the difference in the area of the hair follicles and the difference in the diameter of the sebaceous glands.
as §2

[3] = external use (0.25% CLY cream; positive: Differin)
[4] = intravenous injection 1 mg/kg·d

Compound | Area density of melanocytes (skin melanocytes) | Area of melanocytes (skin melanocytes) | Average gray level (melanocyte depth) (skin melanocytes) | Average optical density (melanocyte depth) (skin melanocytes) | Integrated optical density (melanocyte depth) (skin melanocytes) | Number density of melanocytes (skin melanocytes) | Number of melanocytes (skin melanocytes) | number of rabbits with acne histological grading 2+ (rabbit ear acne model [1]; [3]) | number of rabbits with acne histological grading 2+ (rabbit ear acne model [1]; [4]) | number of rabbits with acne histological grading — (rabbit ear acne model [1]; [3]) | number of rabbits with acne histological grading — (rabbit ear acne model [1]; [4]) | number of rabbits with acne histological grading 1+ (rabbit ear acne model [1]; [3]) | number of rabbits with acne histological grading 1+ (rabbit ear acne model [1]; [4]) | number of rabbits with acne histological grading 3+ (rabbit ear acne model [1]; [3]) | number of rabbits with acne histological grading 3+ (rabbit ear acne model [1]; [4]) | epidermal thickness (rabbit ear acne model [2]; [3]) | hair follicle area (rabbit ear acne model [2]; [3]) | sebaceous gland diameter (rabbit ear acne model [2]; [3]) | epidermal thickness (rabbit ear acne model [2]; [4]) | hair follicle area (rabbit ear acne model [2]; [4]) | other results
O=C(c1ccc(-n2nnc3cccnc32)cc1)N(c1ncccc1Cl)[C@@H]1CCNC1 [CLY-8, (R)-4-(3H-[1,2,3]triazolo[4,5-b]pyridin-3-yl)-N-(3-chloropyridin-2-yl)-N-(pyrrolidin-3-yl)benzamide] | 0.003 ± 0.001 | 341.26 ± 54.82 um2 | 0.39 ± 0.04 | 10.48 ± 1.11 | 103.15 ± 9.52 | 1.71 ± 1.26 | 1.36 ± 0.29 | 1 | 0 | 8 | 9 | 1 | 1 | 0 | 0 | 0.2237 ± 0.0168 mm | 0.2115 ± 0.0832* mm^2 | 0.0663 ± 0.0307 mm | 0.1843 ± 0.0156 mm | 0.1845 ± 0.0653* mm^2 | sebaceous gland diameter (rabbit ear acne model [2]; [4]): 0.0572 ± 0.0289 mm
CN1CCC[C@@H](N(C(=O)c2ccc(-n3nnc4cccnc43)cc2)c2ncccc2Cl)C1 [CLY-1, (R)-4-(3H-[1,2,3]triazolo[4,5-b]pyridin-3-yl)-N-(3-chloropyridin-2-yl)-N-(1-methylpiperidin-3-yl)benzamide] | 0.005 ± 0.002 | 372.31 ± 58.32 um2 | 0.43 ± 0.07 | 11.23 ± 1.21 | 103.34 ± 9.71 | 1.91 ± 0.96 | 1.93 ± 0.55 | 2 | 1 | 5 | 7 | 3 | 2 | 0 | 0 | 0.2376 ± 0.0182 mm | 0.2736 ± 0.0967* mm^2 | 0.0825 ± 0.0389 mm | 0.2287 ± 0.0171 mm | 0.2256 ± 0.0863* mm^2 | sebaceous gland diameter (rabbit ear acne model [2]; [4]): 0.0536 ± 0.0312 mm
CCN1CCC[C@@H](N(C(=O)c2ccc(-n3nnc4cccnc43)cc2)c2ncccc2Cl)C1 [CLY-2, (R)-4-(3H-[1,2,3]triazolo[4,5-b]pyridin-3-yl)-N-(3-chloropyridin-2-yl)-N-(1-ethylpiperidin-3-yl)benzamide] | 0.004 ± 0.002 | 366.26 ± 62.15 um2 | 0.41 ± 0.06 | 10.68 ± 1.18 | 106.96 ± 9.84 | 1.88 ± 1.34 | 1.75 ± 0.53 | 2 | 1 | 6 | 8 | 2 | 1 | 0 | 0 | 0.2348 ± 0.0169 mm | 0.2639 ± 0.0934* mm^2 | 0.0687 ± 0.0375 mm | 0.2265 ± 0.0165 mm | 0.2232 ± 0.0859* mm^2 | sebaceous gland diameter (rabbit ear acne model [2]; [4]): 0.0496 ± 0.0298 mm
